Data set [1] deals with HBV DNA replication. The data set can be described thus: Inhibition experiment on HBV virus replication (HepG 2,2,15 cells, supernatant HBV DNA by qPCR). Format: cell-based. Conditions: Hepatitis B virus, HepG2.2.15, 10 days treatment, supernatant HBV DNA on day 11. From the text:
(§1) The chromosomal integration of HepG2,2,15 cells (SELLS, PNAS, 1987 and SELLS, JV, 1988) has a complete HBV genome and stably expresses viral RNA and viral proteins. HepG2,2,15 cells are capable of secreting mature hepatitis B virus particles and HBsAg into the culture medium. Virus particles DNA and HBsAg secreted by HepG 2,2,15 cells can be quantified by qPCR and ELISA, and the effects of compounds on viral replication and HBsAg secretion can be detected.
HepG 2,2,15 cells were inoculated with 8,000 per cell to 96-well cell culture plates in duplicate, and were cultured for 3 days until the cells grew to full-hole. Cells were treated with 4-fold serial dilutions of compounds for 10 days, and were given once every other day. The final concentration of DMSO in all pores was 0.5% and DMSO was used as a drug-free control. The supernatant was collected for quantitative detection of HBV DNA on day 11.
Viral genomic DNA was detected by qPCR method, and HBV primers were as follows: […]
The SYBR Premix Ex Taq D-Takara DRR081S kit was used, and 1 μL of cell culture supernatant was used as a template. A standard curve was made using a plasmid containing the HBV genome, and the viral copy number was calculated using the standard curve. Concentration-virus copy number was processed using Graphpad Prism 5 software, and IC50 of compounds inhibiting virus replication was calculated by four-parameter nonlinear regression model.
(In qPCR the cycle at which signal appears reflects the starting amount.)

The test system of data set [2] is HBsAg secretion. The data set can be described thus: Inhibition experiment on HBsAg secretion (HepG 2,2,15 cells, ELISA). Format: cell-based. To be noted: Hepatitis B virus, HepG2.2.15, read-out: HBsAg IC50.
Source text: as §1
HepG 2,2,15 cells were inoculated with 8,000 per cell to 96-well cell culture plates in duplicate, and were cultured for 3 days until the cells grew to full-hole. Cells were treated with 4-fold serial dilutions of compounds for 10 days, and were given once every other day. The final concentration of DMSO in all pores was 0.5% and DMSO was used as a drug-free control. The supernatant was collected for quantitative detection of HBsAg on day 11.
The level of HBsAg secreted by the cells after treatment of the compound was detected by ELISA method, and the method used a hepatitis B surface antigen diagnostic kit (Shanghai Kehua Biotech Co., Ltd. S10910113). 25 μL of the supernatant to be assayed (PBS was diluted to 75 μL) was added to per well in the ELISA plate, and the kit positive control and negative control were set. The ELIS A plate was blocked with a cover paper and incubated at 37° C. for 60 minutes. The ELISA plate was taken out, and the cover paper was teared off, and 50 μL of enzyme conjugate was added to each well. The ELISA plate was oscillated on the shaker for 10 seconds, blocked with a cover paper and incubated at 37° C. for 30 minutes. The ELISA plate was taken out, the cover paper was teared off, and the ELISA plate was washed 5 times: each time the liquid in the hole was discarded, and the washing liquid was filled into the holes, left to stand for 60 seconds, dried, and the liquid residue was patted to dry on the absorbent paper. A freshly prepared mixture of Developer A and Developer B was added to all wells immediately after washing: 100 μL per well. The ELISA plate was oscillated on the shaker for 10 seconds, blocked with a cover paper and incubated at 37° C. for 30 minutes. 50 μL of stop solution was added to all wells. Absorbance was read on the Envision plate reader at a wavelength of 450 nm.
Concentration-HBsAg OD450 was processed using Graphpad Prism 5 software, and IC50 of compounds inhibiting against HBsAg secretion was calculated by four-parameter nonlinear regression model.

Data set [3] is described as follows: PK test experiments in SD rats. Also noted: VSS: unit not given here. Format: in vivo. Conditions: for AUC(0-inf) / AUC(0-t) / Cmax / clearance: male, rat, plasma. As for the experimental part: The PK test in vivo of the compound of the present invention in SD rats (body weight 200-250 g, male, age 2-3 months, 3 per group with oral administration, 3 per group with intravenous injection) The SD rat was administered orally with 2.5 mg/kg or 5 mg/kg of the compound tested or intravenously injected with 0.5 mg/kg or 1 mg/kg of the compound tested. After administration, venous blood was collected at time points (0.083, 0.25, 0.5, 1, 2, 5, 7 and 24 hours) and collected in an anticoagulation tube to which EDTA-K2 was added. Plasma samples were extracted by liquid-liquid extraction and quantitatively analyzed by multiple reaction ion monitoring (MRM) on a triple quadrupole tandem mass spectrometer. Pharmacokinetic parameters were calculated using a noncompartmental method by WinNonLin 6.3 software.

For `COCCCOc1cc2c(c3c1OCC3)-c1cc(=O)c(C(=O)O)cn1C(C(C)C)C2` (stereo not drawn) [Example 2, 7-Isopropyl-4-(3-methoxypropoxy)-11-oxo-2,6,7,11-tetrahydro-1H-furo[2,3-h]pyrido[2,1-a]isoquinoline-10-carboxylic Acid], the IC50 in data set [1] was found to be 1.21 nM. Moreover, the IC50 in data set [2] came to 1.45 nM. In data set [3] (IV, 1 mg/kg), the VSS is listed as 1.8, the AUC(0-inf) turned out to be 1330 ng·h/mL, the AUC(0-t) was found to be 1210 ng·h/mL and the Cmax was determined as 738 ng/mL. This compound came in with a clearance in data set [3] (IV, 1 mg/kg) of 12.6 mL/min/kg. Moreover, in data set [3] (PO, 5 mg/kg), the F worked out at 174.5%, the AUC(0-inf) stood at 10600 ng·h/mL, the AUC(0-t) stood at 10600 ng·h/mL and the concentration peaked (Cmax) at 1860 ng/mL.

As to `CC(C)N1Cc2cc(-c3cnn(C(C)C)c3)c3c(c2-c2cc(=O)c(C(=O)O)cn21)CCO3` [Example 17, 7-Isopropyl-4-(1-isopropyl-11-pyrazol-4-yl)-11-oxo-2,6,7,11-tetrahydro-1H-furo[2,3-h]pyrido[2,1-a]phthalazine-10-carboxylic Acid], 1.51 nM corresponded to half-maximal inhibition in data set [1] (IC50). In addition, the IC50 in data set [2] was found to be 3.27 nM. For the same compound, in data set [3] (IV, 1 mg/kg), the VSS worked out at 1.01, the AUC(0-inf) was determined as 1640 ng·h/mL, the AUC(0-t) is 1610 ng·h/mL and the highest level (Cmax) was 932 ng/mL. The compound further gave a clearance in data set [3] (IV, 1 mg/kg) of 10.1 mL/min/kg. Further, in data set [3] (PO, 5 mg/kg), the F came out at 130.6%, the AUC(0-inf) was determined as 10700 ng·h/mL, the AUC(0-t) was 10700 ng·h/mL and the Cmax turned out to be 1620 ng/mL.

`CC(C)C1Cc2cc(-c3cnn(C(C)C)c3)c3c(c2-c2cc(=O)c(C(=O)O)cn21)CCO3` (stereo not drawn) [Example 9, 7-Isopropyl-4-(1-isopropyl-1H-pyrazol-4-yl)-11-oxo-2,6,7,11-tetrahydro-1H-furo[2,3-h]pyrido[2,1-a]isoquinoline-10-carboxylic Acid]: in data set [1], it took 1.1 nM to reach half-maximal inhibition (IC50). The IC50 in data set [2] was 2.83 nM. In data set [3] (IV, 1 mg/kg), this compound displayed a VSS of 2.2, an AUC(0-inf) of 1190 ng·h/mL, an AUC(0-t) of 1180 ng·h/mL and a Cmax of 641 ng/mL. Also, in data set [3] (IV, 1 mg/kg), the clearance turned out to be 14 mL/min/kg. Further, in data set [3] (PO, 5 mg/kg), the F is listed as 94%, the AUC(0-inf) is 5590 ng·h/mL, the AUC(0-t) was determined as 5560 ng·h/mL and the concentration peaked (Cmax) at 1630 ng/mL.

`CC(C)C1Cc2cc(-c3cnn(C4CCOCC4)c3)c3c(c2-c2cc(=O)c(C(=O)O)cn21)CCO3` (stereo not drawn) [Example 34, 7-Isopropyl-11-oxo-4-(1-(tetrahydro-2H-pyran-4-yl)-1H-pyrazol-4-yl)-2,6,7,11-tetrahydro-1H-furo[2,3-h]pyrido[2,1-a]isoquinoline-10-carboxylic Acid]: the results for the IC50 in data set [1] and in data set [2] were 3.72 nM and 2.37 nM, respectively.

In turn, `CC(C)C1Cc2cc(OCCC3CC3)c3c(c2-c2cc(=O)c(C(=O)O)cn21)CCO3` (stereo not drawn) [Example 3, 4-(2-Cyclopropylethoxy)-7-isopropyl-11-oxo-2,6,7,11-tetrahydro-1H-furo[2,3-h]pyrido[2,1-a]isoquinoline-10-carboxylic Acid] registered an IC50 in data set [1] of 1.6 nM. Moreover, in data set [2], the IC50 stood at 1.4 nM. Besides, in data set [3] (IV, 1 mg/kg), the VSS is listed as 1.5, the AUC(0-inf) is 1760 ng·h/mL, the AUC(0-t) came out at 1630 ng·h/mL and the Cmax amounted to 744 ng/mL. This compound registered a clearance in data set [3] (IV, 1 mg/kg) of 9.45 mL/min/kg. Besides, in data set [3] (PO, 5 mg/kg), the F came out at 167.4%, the AUC(0-inf) was found to be 14800 ng·h/mL, the AUC(0-t) was 14700 ng·h/mL and the Cmax stood at 1810 ng/mL.

For the compound `COc1cccc(-c2cc3c(c4c2OCC4)-c2cc(=O)c(C(=O)O)cn2C(C(C)C)C3)c1` (stereo not drawn) [Example 27, 7-Isopropyl-4-(3-methoxyphenyl)-11-oxo-2,6,7,11-tetrahydro-1H-furo[2,3-h]pyrido[2,1-a]isoquinoline-10-carboxylic Acid], the IC50 turned out to be 2.54 nM in data set [1] and 4.65 nM in data set [2].

`CC(C)C1Cc2cc(-c3cnn(C(F)F)c3)c3c(c2-c2cc(=O)c(C(=O)O)cn21)CC(C)(C)O3` (stereo not drawn) [Example 41, 4-(1-(Difluoromethyl)-1H-pyrazol-4-yl)-7-isopropyl-2,2-dimethyl-11-oxo-2,6,7,11-tetrahydro-1H-furo[2,3-h]pyrido[2,1-a]isoquinoline-10-carboxylic Acid]: the values for the IC50 in data set [1] and in data set [2] were 2.09 nM and 0.54 nM, respectively.

In the case of `CC(C)C1Cc2cc(OCCC3CC3)c3c(c2-c2cc(=O)c(C(=O)O)cn21)CC(C)(C)O3` (stereo not drawn) [Example 40, 4-(2-Cyclopropylethoxy)-7-isopropyl-2,2-dimethyl-11-oxo-2,6,7,11-tetrahydro-1H-furo[2,3-h]pyrido[2,1-a]isoquinoline-10-carboxylic Acid], the IC50 came out at 1.45 nM in data set [1] and 0.54 nM in data set [2].

The compound `CC1(C)CCC2c3cc(OCCC4CC4)c4c(c3-c3cc(=O)c(C(=O)O)cn3N21)CCO4` (stereo not drawn) [Example 13, 5-(2-Cyclopropylethoxy)-1,1-dimethyl-10-oxo-2,3,3a,7,8,10-hexahydro-1H-furo[3,2-f]pyrido[1,2-c]pyrrolo[2,1-a]phthalazine-11-carboxylic Acid] showed an IC50 in data set [1] of less than 0.24 nM. Further, in data set [2], the IC50 came out at 0.34 nM. In addition, in data set [3] (IV, 1 mg/kg), the VSS came out at 1.4, the AUC(0-inf) worked out at 2860 ng·h/mL, the AUC(0-t) is 2830 ng·h/mL and the concentration peaked (Cmax) at 1000 ng/mL. The compound also displayed a clearance in data set [3] (IV, 1 mg/kg) of 5.84 mL/min/kg. In addition, in data set [3] (PO, 5 mg/kg), the F came out at 129%, the AUC(0-inf) amounted to 18400 ng·h/mL, the AUC(0-t) is 18300 ng·h/mL and the Cmax is 1700 ng/mL.

In the case of `CC(C)C1Cc2cc(-c3ccco3)c3c(c2-c2cc(=O)c(C(=O)O)cn21)CCO3` (stereo not drawn) [Example 1, 4-(Furan-2-yl)-7-isopropyl-11-oxo-2,6,7,11-tetrahydro-1H-furo[2,3-h]pyrido[2,1-a]isoquinoline-10-carboxylic Acid], the IC50 was 2.36 nM in data set [1] and 4.21 nM in data set [2].

Turning to `CC(C)C1Cc2cc(-c3cnn(C4COC4)c3)c3c(c2-c2cc(=O)c(C(=O)O)cn21)CCO3` (stereo not drawn) [Example 35, 7-Isopropyl-4-(1-(oxetan-3-yl)-1H-pyrazol-4-yl)-11-oxo-2,6,7,11-tetra hydro-1H-furo[2,3-h]pyrido[2,1-a]isoquinoline-10-carboxylic Acid], the figures for the IC50 in data set [1] and in data set [2] were 2.35 nM and 3.29 nM, respectively.

Take `COCCCOc1cc2c(c3c1OCC3)-c1cc(=O)c(C(=O)O)cn1N1C2CCC1(C)C` (stereo not drawn) [Example 12, 5-(3-Methoxypropoxy)-1,1-dimethyl-10-oxo-2,3,3a,7,8,10-hexahydro-1H-furo [3,2-f]pyrido[1,2-c]pyrrolo[2,1-a]phthalazine-11-carboxylic Acid]: the figures for the IC50 in data set [1] and in data set [2] were less than 0.24 nM and 0.81 nM, respectively.

Usually IC50 stands for the concentration that gives 50% inhibition. As a reminder, the AUC(0-inf) is the area under the concentration-time curve extrapolated to infinity. The AUC(0-t) is exposure summed from dosing to a finite time, without extrapolation to infinity. As usually defined, the Cmax is the maximum level reached in the sampled fluid or tissue. One may read the clearance as the volume of plasma or blood freed of the substance per unit of time.

For the origin of these results see US11447498B2, “Fused tetracyclic compounds and uses thereof in medicine” (SUNSHINE LAKE PHARMA CO., LTD., priority 2018, dated 2022).
